Where two headings read alike, the source gives them in different places.

Results on 2 compounds are retold here after publication PMC8216263 (Pharmaceutical Biology, 2021).

The nature of the series: Single- and multiple-dose plasma pharmacokinetics of GA and PCA after oral RLQ in healthy subjects. It is filed as in vivo, human. To be noted: for AUC(0-inf) / AUC(0-t) / Vd/F / k el / half-life: 8 g; for Vd/F: read-out: Vz/F; for k el: read-out: ke (converted). On the procedure:
The study protocol was approved by the Ethics Committee of the Second Affiliated Hospital of Tianjin University of Traditional Chinese Medicine. […] Subjects were offered standard meals at 4 and 10 h after dosing. Water was not permitted during the hour before and the hour after dosing, except for 240 mL administered with dosing; additional water intake was allowed at all other times.
In the single-dose study, 8 g of RLQ was administered orally on day 1. A 7-d washout time was designed between single-dose and multiple-dose pharmacokinetic studies. In the multiple-dose study, subjects received multiple doses of RLQ (8 g, t.i.d.) for seven consecutive days from day 8 to day 14 and a single dose of RLQ (8 g) on the morning of day 15. […] Additional pre-dose samples were collected in the morning on days 12, 13 and 14. […] All samples were stored at −80 °C until analysis.
All analytes were extracted from plasma and urine samples by simple protein precipitation extraction method using acetonitrile. Briefly, 5 µL of internal standard solution and 300 μL of acetonitrile were added to the spiked blank matrix (100 μL) and vortexed for 3 min and then centrifuged at 13,000 × g for 10 min. The supernatant was transferred and dried using a flow of nitrogen. The residue was re-dissolved in 100 µL of 10% methanol solution containing 0.1% formic acid. An aliquot of 5 µL solution was injected into the LC-MS/MS system for analysis.
The chromatographic separation was performed on an Acquity Ultra Performance LC instrument (Waters, Milford, MA) with a gradient programme in an ACQUITY UPLC BEH C18 column (2.1 mm × 100 mm, 1.7 μm). […] The injection volume was 2 µL. The mass spectrometry analysis was performed on an AB Sciex Triple Quad 5500 MS (Framingham, MA) equipped with an ESI source.
The peak plasma concentration (Cmax) and time to reach the peak plasma concentration (Tmax) were calculated from the actual plasma concentration data. The area under the plasma concentration-time curve from zero to the last measurable concentration (AUC0–t) was calculated via the linear trapezoidal rule. AUC0–∞ was calculated using the following formula: AUC0–∞ = AUC0–t + Ct/ke, where Ct is the last plasma concentration measured. […] The accumulation index was calculated as AUCss/AUC0–t.

Where [1] appears, read: both sexes, human, plasma, oral, human plasma, multiple dose RLQ 8 g.
Where [2] appears, read: both sexes, human, plasma, oral, human plasma, multiple dose RLQ 8 g, read-out: AUC0–t.
The mark [3] stands for this setting: both sexes, human, plasma, oral, human plasma, single dose RLQ 8 g.
Where [4] appears, read: both sexes, human, plasma, oral, human plasma, single dose RLQ 8 g, read-out: AUC0–t.
[5] abbreviates: both sexes, human, plasma, oral, multiple dose RLQ 8 g.
The mark [6] stands for this setting: both sexes, human, plasma, oral, multiple dose RLQ 8 g, read-out: t1/2 (converted).
Where [7] appears, read: both sexes, human, plasma, oral, single dose RLQ 8 g.
Setting [8] is: both sexes, human, plasma, oral, single dose RLQ 8 g, read-out: t1/2 (converted).
Where [9] appears, read: both sexes, human, plasma, oral, single dose RLQ 8 g, median (range), read-out: tmax.
Setting [10] is: both sexes, human, plasma, po, abstract summary, oral RLQ, read-out: half-life.
Where [11] appears, read: both sexes, oral, human plasma, multiple dose RLQ 8 g t.i.d. 7 d then single dose, means ± SD, read-out: Cmax.
The mark [12] stands for this setting: both sexes, human plasma, single oral dose RLQ 8 g, means ± SD, read-out: Cmax.
Setting [13] is: human, plasma, oral, single dose RLQ 8 g, female subjects n = 6, read-out: Cmax in women.
The mark [14] stands for this setting: human, plasma, oral, single dose RLQ 8 g, male subjects n = 6, read-out: Cmax in men.
Where [15] appears, read: multiple dose RLQ 8 g, median (range).

On to `O=C(O)c1ccc(O)c(O)c1` [PCA, protocatechuic acid], for which the “response in human plasma and urine samples” value (LC-MS/MS after oral RLQ) is on record as “relatively high response”. Further, the “time to absorption into the blood after administration” value (abstract summary, oral RLQ) is at most 1 h. For the same compound, the “accumulation ratio (AUCss/AUC0–t)” value (after multiple doses, median (range)) is recorded as 1.04 (0.56–1.51). In addition, the AUC(0-inf) – broadly, total exposure, with the tail of the curve extrapolated – turned out to be 3.09 ± 0.9 ng·h/mL under setting [1] and 3.64 ± 1.35 ng·h/mL under setting [3]. Besides, the AUC(0-t) runs as follows: under setting [2], 2.81 ± 0.81 ng·h/mL; under setting [4], 3.2 ± 1.17 ng·h/mL. In addition, the Vd/F came out at 139 ± 46.1 L under setting [5] and 158 ± 101 L under setting [7]. For the same compound, the k el under setting [5] is 0.000789 s⁻¹ and the k el under setting [7] was 0.000672 s⁻¹. The half-life runs as follows: under setting [6], 15.6 ± 4.8 min; under setting [8], 19.8 ± 8.4 min; under setting [10], under 120 min. For the same compound, the tmax under setting [9] came to 19.8 min and the tmax under setting [15] was 0.33 (0.17, 0.5) h. Besides, the Cmax (in general, the highest concentration seen after dosing) was 5.45 ± 1.58 ng/mL under setting [11], 6.06 ± 2.28 ng/mL under setting [12], 7.58 ng/mL under setting [13] and 4.54 ng/mL under setting [14]. The CL/F (as a rule, clearance divided by bioavailability, as obtained after extravascular dosing) runs as follows: (multiple dose RLQ 8 g) 379 ± 119 L/h; (single dose RLQ 8 g) 337 ± 135 L/h.
Regarding `O=C(O)c1cc(O)c(O)c(O)c1` [GA, gallic acid], the “time to absorption into the blood after administration” value (abstract summary, oral RLQ) was at most 1 h. For the same compound, the AUC(0-inf) was found to be 209 ± 63.5 ng·h/mL under setting [1] and 256 ± 74.9 ng·h/mL under setting [3]. Besides, the AUC(0-t) under setting [2] turned out to be 205 ± 62.8 ng·h/mL; the AUC(0-t) under setting [4] was 251 ± 74.4 ng·h/mL; the AUC(0-t) (female, human, plasma, oral, single dose RLQ 8 g, female subjects, read-out: AUC0–t in women) was found to be 301 ± 46.3 ng·h/mL; the AUC(0-t) (male, human, plasma, oral, single dose RLQ 8 g, male subjects, read-out: AUC0–t in men) stood at 201 ± 63.3 ng·h/mL. Besides, the Vd/F runs as follows: under setting [5], 292 ± 113 L; under setting [7], 241 ± 82.7 L. Also, the k el is 0.00015 s⁻¹ under setting [5] and 0.000147 s⁻¹ under setting [7]. Also, the half-life under setting [6] is 80.4 ± 19.2 min, the half-life under setting [8] is 82.2 ± 22.2 min and the half-life under setting [10] is under 120 min. Also, the tmax reads like this: under setting [9], 45 min; under setting [15], 0.75 (0.75, 1) h. Besides, the Cmax came out at 118 ± 39.5 ng/mL under setting [11], 139 ± 49.4 ng/mL under setting [12], 176 ng/mL under setting [13] and 102 ng/mL under setting [14]. Further, the CL/F is, setting by setting: (multiple dose RLQ 8 g) 152 ± 51.6 L/h; (single dose RLQ 8 g) 124 ± 42.0 L/h. Moreover, the “Vz/F and CL/F, females versus males” value (p < 0.05) is reported as “significantly lower levels in females than in males”.
